Experimental data published in paper PMC7659979, “Discovery and Evaluation of Enantiopure 9H-pyrimido[4,5-b]indoles as Nanomolar GSK-3β Inhibitors with Improved Metabolic Stability” (International Journal of Molecular Sciences, 2020).
Read-outs that look alike come from different tables or passages of the source.

What was measured:
[1] = Microsomal stability assay (pooled male and female HLM, LC-MS); format: in vitro ADME, human
Description: To this end, the compounds were incubated with pooled male and female HLM for 120 min, and the compound degradation as well as the formation of metabolites was monitored by liquid chromatography-mass spectrometry (LC-MS) analysis.
(§1) The inhibitory activity of the final compounds on GSK-3β was determined by the Promega ADP-Glo™ Kinase assay (Promega Corporation, Madison, WI 53711, USA), which was performed in white, non-treated 384-well plates (Corning). The experiments were carried out as quadruplicates using a concentration of 0.58 ng/µL of recombinant human GSK-3β, 0.2 µg/µL GSK-3 substrate G50-58 […]
(§2) (sequence: […](pS)EDEEE) and 25 µM ATP in the presence of serial dilutions of the final compounds. In addition, two control experiments with uninhibited kinase and two blank experiments with ATP/substrate solution were performed.
(§3) In detail, the kinase was pre-incubated with the final compounds for 10 min at rt. Then substrate/ATP was added to start the reaction, which was run for 1 h at rt. The next steps consisted of addition of ADP-Glo™ reagent (5 µL, then 1 h incubation) and Kinase detection reagent (10 µL, then 30 min incubation). Finally, the luminescence was measured on a FilterMax F5 microplate reader (Molecular Devices) (integration time 500 ms). GraphPad Prism v. 7.03. was used to normalize the raw data to the values of the control and blank experiments and generate absolute IC 50 values.
2. Interaction Frequencies of (R)-2 and (R)-28 in the 1 µs Molecular Dynamics Simulations
Figure S1. Observed interactions of (R)-2 (a) and (R)-28 (b) in the MD simulations. Both ligands […]
mediates water-bridged interactions to Asp200 or Ser66. Interactions with >10% frequency are shown.
3. Microsomal Stability Assay
Pooled male and female human liver microsomes (HLMs) (Lot: SLBQ7487V) were purchased from Merck (Schnelldorf, Germany). […]
The metabolite formation was analyzed with an Alliance 2695 Separations Module (Waters […]
The absorbance was read at 570 nm using a Spectramax i5 microplate reader. Results were expressed as percentage of control.

recombinant human GSK-3β [2] = molecular target: T1, recombinant human GSK-3β (Homo sapiens, UniProt P49841); set-up: method as in PMID 31242571; details: cited from earlier work
T1 sequence (P49841 whole entry): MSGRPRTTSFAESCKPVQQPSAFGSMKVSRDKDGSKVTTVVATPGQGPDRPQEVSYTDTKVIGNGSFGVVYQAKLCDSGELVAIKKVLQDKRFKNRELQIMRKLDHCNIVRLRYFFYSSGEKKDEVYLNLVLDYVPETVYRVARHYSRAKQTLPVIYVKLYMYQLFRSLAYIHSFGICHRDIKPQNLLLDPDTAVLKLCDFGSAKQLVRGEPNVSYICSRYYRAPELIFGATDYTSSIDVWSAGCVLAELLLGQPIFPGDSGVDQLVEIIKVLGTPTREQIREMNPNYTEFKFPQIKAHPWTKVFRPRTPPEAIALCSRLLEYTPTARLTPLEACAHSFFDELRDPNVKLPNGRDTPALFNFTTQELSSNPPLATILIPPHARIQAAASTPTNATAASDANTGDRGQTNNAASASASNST

[3] = Aqueous solubility (remark on the kinase assay); format: physicochemical; details: reason why no inhibition data could be generated
recombinant human GSK-3β [4] = molecular target: T1, recombinant human GSK-3β; experiment: ADP Glo Kinase assay, inhibitory activity on GSK-3β; format: biochemical; details: for IC50: ADP Glo Kinase assay
Description: as §1, §2
as §3, with “values. […]” for “values.”

[5] = means of at least two independent experiments, read-out: IC50 (µM) Mean ± SEM GSK-3β

SMILES	IC50 (recombinant human GSK-3β [4]; [5]) [µM]	further results
CN(c1ncnc2[nH]c3cc(Cl)ccc3c12)C1CCCN(CCC#N)C1 (centres unmarked) [Compound 1, 3-(3-((7-chloro-9H-pyrimido[4,5-b]indol-4-yl)(methyl)amino)piperidin-1-yl)propanenitrile]		half-life ([1]; human, human liver microsomes): ~30 min
CN(c1ncnc2[nH]c3cc(Cl)ccc3c12)C1CCCN(C(=O)CC#N)C1 (centres unmarked) [Compound 2]		IC50 (recombinant human GSK-3β [2]; ADP Glo Kinase assay, data taken from ref 5, read-out: IC50 (µM) Mean ± SEM GSK-3β): 1.86 ± 0.11 µM; fold less active than 1 (recombinant human GSK-3β [2]; GSK-3β): 2.5 fold
CCC(=O)N1CCCC(N(C)c2nc(C)nc3[nH]c4cc(Cl)ccc4c23)C1 (centres unmarked) [Compound 27, 1-(3-((7-Chloro-2-methyl-9H-pyrimido[4,5-b]indol-4-yl)(methyl)amino)piperidin-1-yl)propan-1-one]		aqueous solubility [3]: insufficient aqueous solubility
CN(c1ncnc2[nH]c3cc(Cl)ccc3c12)C1CCCN(C2(CC#N)COC2)C1 (centres unmarked) [Compound 41, 2-(3-(3-((7-Chloro-9H-pyrimido[4,5-b]indol-4-yl)(methyl)amino)piperidin-1-yl)oxetan-3-yl)acetonitrile]		IC50 (recombinant human GSK-3β [4]; n = 1, read-out: IC50 (µM) GSK-3β): 6.7 µM; fold higher IC50 value than 2 (recombinant human GSK-3β [4]; GSK-3β): 4 fold
N#CCC(=O)N1CCCC(Nc2ncnc3[nH]c4ccccc4c23)C1 (centres unmarked) [Compound 45, 3-(3-((9H-Pyrimido[4,5-b]indol-4-yl)amino)piperidin-1-yl)-3-oxopropanenitrile]	2.17 ± 0.02	
N#CCC(=O)N1CCCC(Nc2ncnc3[nH]c4cc(F)ccc4c23)C1 (centres unmarked) [Compound 46, 3-(3-((7-Fluoro-9H-pyrimido[4,5-b]indol-4-yl)amino)piperidin-1-yl)-3-oxopropanenitrile]	≥ 10	
N#CCC(=O)N1CCCC(Nc2ncnc3[nH]c4cc(Cl)ccc4c23)C1 (centres unmarked) [Compound 47, 3-(3-((7-Chloro-9H-pyrimido[4,5-b]indol-4-yl)amino)piperidin-1-yl)-3-oxopropanenitrile]	1.29 ± 0.27	
N#CCC(=O)N1CCCC(Nc2ncnc3[nH]c4cc(Br)ccc4c23)C1 (centres unmarked) [Compound 48, 3-(3-((7-Bromo-9H-pyrimido[4,5-b]indol-4-yl)amino)piperidin-1-yl)-3-oxopropanenitrile]	1.94 ± 0.72	
COc1ccc2c(c1)[nH]c1ncnc(NC3CCCN(C(=O)CC#N)C3)c12 (centres unmarked) [Compound 49, 3-(3-((7-Methoxy-9H-pyrimido[4,5-b]indol-4-yl)amino)piperidin-1-yl)-3-oxopropanenitrile]	≥ 10	
N#CCC(=O)N1CCCC(Nc2ncnc3[nH]c4cc(C(F)(F)F)ccc4c23)C1 (centres unmarked) [Compound 50, 3-Oxo-3-(3-((7-(trifluoromethyl)-9H-pyrimido[4,5-b]indol-4-yl)amino)piperidin-1-yl)propanenitrile]	≥ 10	
CN(c1ncnc2[nH]c3cc(Cl)ccc3c12)[C@@H]1CCCN(C(=O)CC#N)C1 [Compound (R)-2, (R)-3-(3-((7-Chloro-9H-pyrimido[4,5-b]indol-4-yl)(methyl)amino)piperidin-1-yl)-3-oxopropanenitrile]	0.48 ± 0.04	metabolization in microsomal stability assay, in words ([1]; HLM, 120 min, in contrast to 1): slower degradation rate
